From publication PMC8151276, “An Integrated Approach toward NanoBRET Tracers for Analysis of GPCR Ligand Engagement” (Molecules, 2021)

Columns and labels:
Format in all cases: binding
CCR8 = biological target: T1, CCR8 (Homo sapiens, UniProt P51685); test: NanoBRET screen HiBiT-CCR8 in HEK293
T1 construct: purchased Promega (in-house HiBiT-GPCR construct library, NanoBRET)
Protocol: (§1) Each tracer candidate was screened across the entire library of HiBiT-GPCR constructs using NanoBRET as the detection modality. As depicted in Figure 4A, the specificity of interactions was evaluated through decrease in BRET due to competitive displacement of a bound tracer by excess parental compound. Each tracer was analyzed for binding to each HiBiT-GPCR fusion in the absence and in the presence of competing parental compound. Briefly, HEK293 cells were transfected with HiBiT-GPCR constructs diluted into promoterless DNA to reduce expression and maximize translocation to the cell surface. Each tracer candidate was then screened at concentrations of 1 μM and 0.1 μM across cells expressing these fusions. Cells were treated for 1.5 h with tracer either alone or in the presence of 20 μM competing parental compound (i.e., control). BRET was measured upon addition of purified LgBiT and subsequent complementation with HiBiT genetically fused to a GPCR. The specificity of interactions was assessed through a decrease in BRET signal due to competitive displacement of the bound tracer. To further gauge the robustness of these interactions, the fold response over the control (i.e., BRETtracer/BRETcontrol) was calculated. We chose a 1.5-fold response, which translates to ≥7-fold signal over noise as the minimal threshold required to score an interaction as positive. […]. Below we highlight the screening results obtained for our exemplary fluorescent tracers based on Clozapine, Amitriptyline and AZD1283.
(§2) HiBiT-GPCR DNA constructs were diluted in 10 mM Tris pH 8 to a final concentration of 0.01 μg/μL, arrayed in 96-well plates and stored at −20 °C. For transfection, HEK293 cells were suspended in Opti-MEM (without phenol red) supplemented with 2% fetal bovine serum (Seradigm) and 100 units/mL penicillin–streptomycin (Gibco) at a final concentration of 220,000 cells/mL and dispensed into white 96-well plates at 90 μL/well. Subsequent transfections and screens were carried using an Agilent Bravo Automated Liquid Handling Platform. First, the 96-well HiBiT DNA arrays were diluted 25-fold in Opti-MEM (without serum or phenol red) to a final concentration of 0.0004 μg/μL and 20 μL of the diluted DNAs were transferred into new 96-well plates. Next, promoterless carrier DNA (1 μg/μL) was diluted 25-fold (0.04 μg/μL) and then dispensed into the diluted arrays at 20 μL/well. Following brief mixing, Viafect transfection reagent (Promega) diluted 16-fold into Opti-MEM was dispensed into the plates at 40 μL/well. After mixing by pipetting, plates were incubated for 10 min on the pipetting station deck. The DNA-transfection reagent complexes were then added to plates containing cells. To facilitate the screen, 10 μL of DNA-transfection reagent complexes were added in duplicates to the top 4 and bottom 4 rows, resulting in two identical 48-well arrays per plate. Plates with transfected cells were incubated for 18–20 h at 37 °C/5% CO2. A screen of each tracer across the entire library using two different concentrations requires duplicate plates of transfected cells. Depending on the number of tracers being screened, transfections can be scaled up using the same ratios. The next day, for each tracer, four 20× screening solutions in tracer dilution buffer (Promega) were prepared: two duplicates at final concentration of 20 μM and two duplicates at a final concentration of 2 μM. A competing unmodified compound was added to one of each duplicate at a final concentration of 400 μM. The four resulting solutions were diluted 4-fold in Opti-MEM without serum or phenol red to generate 5× solutions (5 µM and 0.5 µM tracer +/− 100 μM competing compound). To screen the library, a BioTek MultiFlo FX liquid dispenser was used to dispense 22.5 µL of tracer solution to the top 4 rows and 22.5 µL tracer + competing compound solution to the 4 bottom rows. Plates were briefly mixed on an orbital shaker and incubated for 1.5 h at room temperature. […]

P2RY14 = biological target: T2, P2RY14 (Homo sapiens, UniProt Q15391); test: NanoBRET screen HiBiT-P2RY14 in HEK293
T2 construct: purchased Promega (in-house HiBiT-GPCR construct library, NanoBRET)
T2 sequence (Q15391 1-338): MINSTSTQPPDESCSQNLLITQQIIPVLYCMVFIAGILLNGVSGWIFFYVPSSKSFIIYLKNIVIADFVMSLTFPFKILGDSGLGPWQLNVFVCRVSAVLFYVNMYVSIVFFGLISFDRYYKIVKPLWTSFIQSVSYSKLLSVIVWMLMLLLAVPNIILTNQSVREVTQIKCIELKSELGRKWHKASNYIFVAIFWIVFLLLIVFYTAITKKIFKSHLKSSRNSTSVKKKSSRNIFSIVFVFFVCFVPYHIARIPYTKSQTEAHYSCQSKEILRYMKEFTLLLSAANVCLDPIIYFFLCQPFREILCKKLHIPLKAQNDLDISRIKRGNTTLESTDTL
Protocol: as §1, §2

P2RY1 = biological target: T3, P2RY1 (Homo sapiens, UniProt P47900); test: NanoBRET screen HiBiT-P2RY1 in HEK293
T3 construct: purchased Promega (in-house HiBiT-GPCR construct library, NanoBRET)
Protocol: as §1, §2

[1] = tracer at 0.1μM, listed as amitriptyline-b-2-NB590
[2] = tracer at 1μM, listed as amitriptyline-b-2-NB590

T3 sequence (P47900 whole entry): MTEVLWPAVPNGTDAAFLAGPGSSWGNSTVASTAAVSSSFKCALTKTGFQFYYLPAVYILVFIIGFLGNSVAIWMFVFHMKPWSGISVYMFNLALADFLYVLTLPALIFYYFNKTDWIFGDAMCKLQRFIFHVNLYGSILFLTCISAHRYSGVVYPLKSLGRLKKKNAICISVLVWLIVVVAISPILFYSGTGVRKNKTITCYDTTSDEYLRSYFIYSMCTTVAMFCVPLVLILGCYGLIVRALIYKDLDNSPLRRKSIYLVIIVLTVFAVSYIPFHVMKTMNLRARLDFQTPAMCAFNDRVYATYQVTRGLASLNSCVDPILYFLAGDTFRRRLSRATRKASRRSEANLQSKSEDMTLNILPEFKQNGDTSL
T1 sequence (P51685 whole entry): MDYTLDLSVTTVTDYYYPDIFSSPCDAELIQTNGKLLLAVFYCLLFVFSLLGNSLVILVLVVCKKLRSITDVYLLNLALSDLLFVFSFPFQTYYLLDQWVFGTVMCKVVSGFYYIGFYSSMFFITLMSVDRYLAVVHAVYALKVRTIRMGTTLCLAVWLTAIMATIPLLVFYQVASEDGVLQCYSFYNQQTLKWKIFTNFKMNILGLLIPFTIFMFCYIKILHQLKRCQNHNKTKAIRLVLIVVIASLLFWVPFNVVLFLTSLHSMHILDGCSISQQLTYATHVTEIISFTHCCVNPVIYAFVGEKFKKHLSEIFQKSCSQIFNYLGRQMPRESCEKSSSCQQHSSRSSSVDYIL

SMILES	NanoBRET Fold Response (CCR8; CCR8, tracer 0.1μM)	NanoBRET Fold Response (CCR8; CCR8, tracer 1μM)	NanoBRET Fold Response (P2RY14; P2RY14, tracer 0.1μM)	NanoBRET Fold Response (P2RY14; P2RY14, tracer 1μM)	NanoBRET Fold Response (P2RY1; P2RY1, tracer 0.1μM)	NanoBRET Fold Response (P2RY1; P2RY1, tracer 1μM)	other results
Cc1nc2n(c(=O)c1CCN1CCC(c3noc4cc(F)ccc34)CC1)CCCC2OC(=O)NCCOCCOCCOCCOCCNC(=O)CCc1ccc2n1[B-](F)(F)[N+]1=C(c3ccc[nH]3)C=CC1=C2 (centres unmarked) [Risperidone-2-NB590]	0.98	0.89	1.02	0.93	0.98	0.97	
CCOC(=O)c1cc(C#N)c(N2CCC(C(=O)NS(=O)(=O)Cc3ccccc3/C=C/C(=O)NCCNC(=O)CCc3ccc4n3[B-](F)(F)[N+]3=C(c5ccc[nH]5)C=CC3=C4)CC2)nc1C [AZD1283-1-NB590]							NanoBRET Fold Response (CCR8; CCR8, 0.1μM): 1.04; NanoBRET Fold Response (CCR8; CCR8, 1μM): 1.18; NanoBRET Fold Response (P2RY14; P2RY14, 0.1μM): 1.14; NanoBRET Fold Response (P2RY14; P2RY14, 1μM): 1.18; NanoBRET Fold Response (P2RY1; P2RY1, 0.1μM): 1.06; NanoBRET Fold Response (P2RY1; P2RY1, 1μM): 1.05
Cc1cc2c(s1)Nc1ccccc1N=C2N1CCN(CCCNC(=O)CCOCCOCCOCCOCCNC(=O)CCc2ccc3n2[B-](F)(F)[N+]2=C(c4ccc[nH]4)C=CC2=C3)CC1 [Olanzapine-a-2-NB590]	0.96	0.95	1.05	1.00	0.97	0.95	
COc1ccccc1N1CCN(CCCCN2C(=O)c3ccc(CNC(=O)CCOCCNC(=O)c4ccc(CNC(=O)CCc5ccc6n5[B-](F)(F)[N+]5=C(c7ccc[nH]7)C=CC5=C6)cc4)cc3C2=O)CC1 [NAN-190-3-NB590]	0.67	1.01	0.95	1.06	0.97	1.00	
CC(C)N(CC[C@H](c1ccccc1)c1cc(CCNC(=O)CCOCCOCCOCCOCCNC(=O)CCc2ccc3n2[B-](F)(F)[N+]2=C(c4ccc[nH]4)C=CC2=C3)ccc1O)C(C)C [Tolterodine-2-NB590]	0.82	1.07	0.93	1.08	0.97	1.00	
CN(C)CCC=C1c2ccccc2CCc2ccc(C(=O)NCCNC(=O)CCOCCOCCOCCOCCNC(=O)CCc3ccc4n3[B-](F)(F)[N+]3=C(c5ccc[nH]5)C=CC3=C4)cc21 [Amitriptyline-b-2-NB590]							NanoBRET Fold Response (CCR8; [1]): 1.03; NanoBRET Fold Response (CCR8; [2]): 1.03; NanoBRET Fold Response (P2RY14; [1]): 1.12; NanoBRET Fold Response (P2RY14; [2]): 0.77; NanoBRET Fold Response (P2RY1; [1]): 1.13
O=C(CCOCCOCCOCCOCCNC(=O)CCc1ccc2n1[B-](F)(F)[N+]1=C(c3ccc[nH]3)C=CC1=C2)NCCCN1CCN(C2=Nc3ccccc3Oc3ccc(Cl)cc32)CC1 [Loxapine-a-2-NB590]	1.02	1.10	0.94	0.98	1.01	0.97	
CN(C)CCC=C1c2ccccc2CCc2ccc(C(=O)NCCNC(=O)CCOCCOCCOCCOCCNC(=O)CCc3ccc4n3[B-](F)(F)[N+]3=C(c5ccc[nH]5)C=CC3=C4)cc21 [Amitriptyline-a-2-NB590]							NanoBRET Fold Response (CCR8; tracer at 0.1μM): 0.94; NanoBRET Fold Response (CCR8; tracer at 1μM): 0.97; NanoBRET Fold Response (P2RY14; tracer at 1μM): 1.09; NanoBRET Fold Response (P2RY1; tracer at 0.1μM): 0.97; NanoBRET Fold Response (P2RY1; tracer at 1μM): 1.01
O=C(CCc1ccc2n1[B-](F)(F)[N+]1=C(c3ccc[nH]3)C=CC1=C2)NCCOCCOCCNC(=O)OCCOCCN1CCN(C2=Nc3ccccc3Sc3ccccc32)CC1 [Quetiapine-a-2-NB590]	0.93	1.16	0.96	0.93	1.00	1.01	
COc1ccccc1N1CCN(CCCCN2C(=O)c3ccc(CNC(=O)CCOCCOCCOCCOCCNC(=O)CCc4ccc5n4[B-](F)(F)[N+]4=C(c6ccc[nH]6)C=CC4=C5)cc3C2=O)CC1 [NAN-190-2-NB590]	0.92	0.92	1.02		0.97		
CN1CCN(C2=Nc3cc(Cl)ccc3N(CC(=O)NCCOCCOCCOCCOCCNC(=O)CCc3ccc4n3[B-](F)(F)[N+]3=C(c5ccc[nH]5)C=CC3=C4)c3ccccc32)CC1 [Clozapine-c-2-NB590]							NanoBRET Fold Response (CCR8; CCR8, 0.1μM tracer): 0.97; NanoBRET Fold Response (CCR8; CCR8, 1μM tracer): 0.96; NanoBRET Fold Response (P2RY14; P2RY14, 0.1μM tracer): 0.96; NanoBRET Fold Response (P2RY14; P2RY14, 1μM tracer): 0.89; NanoBRET Fold Response (P2RY1; P2RY1, 0.1μM tracer): 0.97; NanoBRET Fold Response (P2RY1; P2RY1, 1μM tracer): 1.03
COc1ccc2[nH]c(-c3ccc(CNC(=O)CCOCCOCCOCCOCCNC(=O)CCc4ccc5n4[B-](F)(F)[N+]4=C(c6ccc[nH]6)C=CC4=C5)cc3)c(CCNC(C)=O)c2n1 [AzomelatoninICO9-2-NB590]							NanoBRET Fold Response (CCR8; 0.1μM tracer): 0.68; NanoBRET Fold Response (CCR8; 1μM tracer): 1.10; NanoBRET Fold Response (P2RY14; 0.1μM tracer): 1.21; NanoBRET Fold Response (P2RY14; 1μM tracer): 1.13; NanoBRET Fold Response (P2RY1; 0.1μM tracer): 0.99; NanoBRET Fold Response (P2RY1; 1μM tracer): 0.99
O=C(CCOCCOCCOCCOCCNC(=O)CCc1ccc2n1[B-](F)(F)[N+]1=C(c3ccc[nH]3)C=CC1=C2)NCCCN1CCN(C2=Nc3cc(Cl)ccc3Nc3ccccc32)CC1 [Clozapine-a-2-NB590]							NanoBRET Fold Response (CCR8; CCR8, 0.1μM tracer): 1.02; NanoBRET Fold Response (CCR8; CCR8, 1μM tracer): 0.93; NanoBRET Fold Response (P2RY14; P2RY14, 0.1μM tracer): 1.07; NanoBRET Fold Response (P2RY14; P2RY14, 1μM tracer): 0.84; NanoBRET Fold Response (P2RY1; P2RY1, 0.1μM tracer): 1.01; NanoBRET Fold Response (P2RY1; P2RY1, 1μM tracer): 0.94
CCCn1c(=O)c2[nH]c(-c3ccc(OCC(=O)NCCNC(=O)CCOCCNC(=O)c4ccc(CNC(=O)CCc5ccc6n5[B-](F)(F)[N+]5=C(c7ccc[nH]7)C=CC5=C6)cc4)cc3)nc2n(CCC)c1=O [XAC-3-NB590]	0.90	0.93	0.59	1.36	1.05	0.96	
O=C(CCc1ccc2n1[B-](F)(F)[N+]1=C(c3ccc[nH]3)C=CC1=C2)NCc1ccc(C(=O)NCCOCCOCCNCC(O)COc2cccc3ccccc23)cc1 (centres unmarked) [Propranolol-3-NB590]							NanoBRET Fold Response (CCR8; CCR8, 0.1μM): 1.00; NanoBRET Fold Response (CCR8; CCR8, 1μM): 0.93; NanoBRET Fold Response (P2RY14; P2RY14, 0.1μM): 1.10; NanoBRET Fold Response (P2RY14; P2RY14, 1μM): 1.00; NanoBRET Fold Response (P2RY1; P2RY1, 0.1μM): 1.02; NanoBRET Fold Response (P2RY1; P2RY1, 1μM): 0.97
O=C(CCc1ccc2n1[B-](F)(F)[N+]1=C(c3ccc[nH]3)C=CC1=C2)NCc1ccc(C(=O)NCCOCCC(=O)N[C@@H]2CC[C@@]3(O)[C@H]4Cc5ccc(O)c6c5[C@@]3(CCN4CC3CC3)[C@H]2O6)cc1 [Naltrexone-3-NB590]	1.14	1.02	0.95	1.00	0.86	0.95	
